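Abbreviation: GI50, concentration required for 50% inhibition of growth. TGI denotes the concentration required for complete inhibition of growth.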
How the values were obtained:
Assay in all cases: NCI anticancer screen, dose series, 384-well format
SNB-19 CNS = test system: SNB-19 CNS
COLO 205 colon = test system: COLO 205 colon
CCRF-CEM leukemia = test system: CCRF-CEM leukemia
OVCAR-4 ovarian = test system: OVCAR-4 ovarian
T-47D breast = test system: T-47D breast
SF-295 CNS = test system: SF-295 CNS
BT-549 breast = test system: BT-549 breast
NCI-H23 lung = test system: NCI-H23 lung
NCI-H226 lung = test system: NCI-H226 lung
MOLT-4 leukemia = test system: MOLT-4 leukemia
KM12 colon = test system: KM12 colon
CAKI-1 renal = test system: CAKI-1 renal
HOP-62 NSCLC = test system: HOP-62 NSCLC
NCI-H522 lung = test system: NCI-H522 lung
SK-MEL-2 melanoma = test system: SK-MEL-2 melanoma
NCI-H460 NSCLC = test system: NCI-H460 NSCLC
IGROV1 ovarian = test system: IGROV1 ovarian
MALME-3M melanoma = test system: MALME-3M melanoma
OVCAR-3 ovarian = test system: OVCAR-3 ovarian
UACC-257 melanoma = test system: UACC-257 melanoma
SF-539 CNS = test system: SF-539 CNS
NCI/ADR-RES ovarian = test system: NCI/ADR-RES ovarian
M14 melanoma = test system: M14 melanoma
MCF7 breast = test system: MCF7 breast
UO-31 renal = test system: UO-31 renal
SW-620 colon = test system: SW-620 colon
ACHN renal = test system: ACHN renal
LOX IMVI melanoma = test system: LOX IMVI melanoma
PC-3 prostate = test system: PC-3 prostate
HCC-2998 colon = test system: HCC-2998 colon
U251 glioblastoma = test system: U251 glioblastoma
HCT-116 colon = test system: HCT-116 colon
SR leukemia = test system: SR leukemia
HCT-15 colon = test system: HCT-15 colon
HS 578T breast = test system: HS 578T breast
NCI-H322M lung = test system: NCI-H322M lung
MDA-MB-231 breast = test system: MDA-MB-231 breast
RPMI-8226 leukemia = test system: RPMI-8226 leukemia
K-562 leukemia = test system: K-562 leukemia
RXF 393 renal = test system: RXF 393 renal
MDA-MB-435 melanoma = test system: MDA-MB-435 melanoma
A549 NSCLC = test system: A549 NSCLC
SF-268 CNS = test system: SF-268 CNS
SK-OV-3 ovarian = test system: SK-OV-3 ovarian
MDA-MB-468 breast = test system: MDA-MB-468 breast
A498 renal = test system: A498 renal
SK-MEL-5 melanoma = test system: SK-MEL-5 melanoma

`CN(C)C(=O)c1cc2cnc(Nc3ccc(N4CCNCC4)cn3)nc2n1C1CCCC1` gave a GI50 (SNB-19 CNS) greater than 67.7 µM, a TGI (SNB-19 CNS) greater than 100 µM and a GI50 (COLO 205 colon) of 7.64 µM. The TGI (COLO 205 colon) was 30.1 µM, the GI50 (CCRF-CEM leukemia) was 2.39 µM and the TGI (CCRF-CEM leukemia) was greater than 34.4 µM. The GI50 (OVCAR-4 ovarian) was 30.4 µM, the TGI (OVCAR-4 ovarian) was greater than 94 µM and the GI50 (T-47D breast) was 9.8 µM. For the same compound, the TGI (T-47D breast) was greater than 46.4 µM, the GI50 (SF-295 CNS) was 23.1 µM and the TGI (SF-295 CNS) was 57.4 µM. It also gave a GI50 (BT-549 breast) of 20.2 µM, a TGI (BT-549 breast) of 58.9 µM and a GI50 (NCI-H23 lung) of 25.3 µM. The TGI (NCI-H23 lung) was 61.1 µM, the GI50 (NCI-H226 lung) was 8.83 µM and the TGI (NCI-H226 lung) was 58.1 µM. It also gave a GI50 (MOLT-4 leukemia) of 0.73 µM, a TGI (MOLT-4 leukemia) of 6.31 µM and a GI50 (KM12 colon) of 2.51 µM. For the same compound, the TGI (KM12 colon) was 35.5 µM, the GI50 (CAKI-1 renal) was 8.2 µM and the TGI (CAKI-1 renal) was 63.6 µM. The GI50 (HOP-62 NSCLC) was 29.2 µM, the TGI (HOP-62 NSCLC) was 67.6 µM and the GI50 (NCI-H522 lung) was 29.5 µM. For the same compound, the TGI (NCI-H522 lung) was 82.2 µM, the GI50 (SK-MEL-2 melanoma) was 16.8 µM and the TGI (SK-MEL-2 melanoma) was 35.7 µM. It also gave a GI50 (NCI-H460 NSCLC) of 12.3 µM, a TGI (NCI-H460 NSCLC) greater than 61.5 µM and a GI50 (IGROV1 ovarian) of 26.2 µM. It also gave a TGI (IGROV1 ovarian) of 98.8 µM, a GI50 (MALME-3M melanoma) of 11.1 µM and a TGI (MALME-3M melanoma) of 31.2 µM. The GI50 (OVCAR-3 ovarian) was 33.1 µM, the TGI (OVCAR-3 ovarian) was 61.7 µM and the GI50 (UACC-257 melanoma) was 47.6 µM. For the same compound, the TGI (UACC-257 melanoma) was greater than 69.7 µM, the GI50 (SF-539 CNS) was 22.2 µM and the TGI (SF-539 CNS) was 68.2 µM. The GI50 (NCI/ADR-RES ovarian) was greater than 100 µM, the TGI (NCI/ADR-RES ovarian) was greater than 100 µM and the GI50 (M14 melanoma) was 30.2 µM. It also gave a TGI (M14 melanoma) greater than 89.2 µM, a GI50 (MCF7 breast) of 23.3 µM and a TGI (MCF7 breast) of 40.7 µM. The GI50 (UO-31 renal) was 13.8 µM, the TGI (UO-31 renal) was greater than 100 µM and the GI50 (SW-620 colon) was 9.02 µM. The TGI (SW-620 colon) was greater than 65.6 µM, the GI50 (ACHN renal) was 5.81 µM and the TGI (ACHN renal) was 46.7 µM. It also gave a GI50 (LOX IMVI melanoma) of 8.51 µM, a TGI (LOX IMVI melanoma) of 47.9 µM and a GI50 (PC-3 prostate) of 17.8 µM. The TGI (PC-3 prostate) was greater than 80.5 µM, the GI50 (HCC-2998 colon) was 29.2 µM and the TGI (HCC-2998 colon) was greater than 100 µM. The GI50 (U251 glioblastoma) was 30.8 µM, the TGI (U251 glioblastoma) was greater than 46.4 µM and the GI50 (HCT-116 colon) was 7.55 µM. For the same compound, the TGI (HCT-116 colon) was 23.5 µM, the GI50 (SR leukemia) was 0.507 µM and the TGI (SR leukemia) was 1.97 µM. The GI50 (HCT-15 colon) was 28.8 µM, the TGI (HCT-15 colon) was greater than 75.4 µM and the GI50 (HS 578T breast) was 33 µM. For the same compound, the TGI (HS 578T breast) was greater than 58.5 µM, the GI50 (NCI-H322M lung) was 21.3 µM and the TGI (NCI-H322M lung) was 59.5 µM. For the same compound, the GI50 (MDA-MB-231 breast) was 4.09 µM, the TGI (MDA-MB-231 breast) was 33.7 µM and the GI50 (RPMI-8226 leukemia) was 0.607 µM. For the same compound, the TGI (RPMI-8226 leukemia) was 27.4 µM, the GI50 (K-562 leukemia) was 10.8 µM and the TGI (K-562 leukemia) was 29.7 µM. It also gave a GI50 (RXF 393 renal) of 17.5 µM, a TGI (RXF 393 renal) of 31 µM and a GI50 (MDA-MB-435 melanoma) of 52.2 µM. For the same compound, the TGI (MDA-MB-435 melanoma) was greater than 100 µM, the GI50 (A549 NSCLC) was 23.5 µM and the TGI (A549 NSCLC) was greater than 84.1 µM. The GI50 (SF-268 CNS) was 24.8 µM, the TGI (SF-268 CNS) was 46.6 µM and the GI50 (SK-OV-3 ovarian) was greater than 80.2 µM. The TGI (SK-OV-3 ovarian) was greater than 100 µM, the GI50 (MDA-MB-468 breast) was greater than 59.3 µM and the TGI (MDA-MB-468 breast) was greater than 100 µM. For the same compound, the GI50 (A498 renal) was 23.9 µM, the TGI (A498 renal) was 45.1 µM and the GI50 (SK-MEL-5 melanoma) was 28 µM. The TGI (SK-MEL-5 melanoma) was greater than 97.1 µM.
